According to US10610522B2, “Methods for retreating irritable bowel syndrome (IBS)” (Salix Pharmaceuticals, Inc., priority 2014, dated 2020):

Test system: d-IBS
Assay: Study of rifaximin BID doses vs placebo in subjects with d-IBS: adequate relief of IBS symptoms and bloating
Assay type: in vivo, human
Settings: for Percentage of subjects with adequate relief of IBS symptoms / Percentage of subjects with adequate relief of bloating symptom: RFX 550 mg BID 14 d, at least 2 of final 3 weeks of treatment phase (Weeks 1-4); for Adequate relief of bloating, post treatment, Failures / Adequate relief of bloating, post treatment, Success / Adequate relief of bloating, post treatment, Failure: RFX 550 2w (N = 54); for Patients with adequate relief of bloating / Patients with adequate relief of global IBS symptoms: 550 mg BID 14 d
Description: This example relates to a study of rifaximin in subjects with d-IBS. […] There were two measures of efficacy assessed. Subjects were questioned on the relief of overall IBS symptoms and bloating. […] The analyses defined success as a “yes” response to questions regarding adequate relief.
All subpopulations in the study responded to therapy. Baseline severity was determined using 7-point Lickert scales during screening for Abdominal Pain/Discomfort and Bloating, and the number, type (normal, hard, loose) and urgency of bowel movements.
Duration of effect was assessed in a follow-up period. Subjects that responded in the 4 week treatment period were followed for an additional 3 months.
The effect of treatment on the percentage of subjects who reported adequate relief of IBS and bloating symptoms for at least two of the final three weeks during the treatment phase (Weeks 1 to 4) is shown in Tables 5-7 and FIGS. 4-6 below.
The study assessed the effect over 12 weeks of follow-up on long-term adequate relief. Subjects who had adequate relief by Week 4 and remained symptom-free at Week 5 were followed during the post-treatment phase and shown in FIGS. 1 and 2. Superiority to placebo was maintained during the 12 weeks post-treatment follow-up. Results for IBS symptoms were RFX 550 mg BID 62.3% versus placebo 49.2%, and RFX 550 mg BID 59.3% versus 50.9% for placebo for the symptom of bloating through week 16. In assessing the follow-up data, there was statistical significance (p<0.05) of bloating and IBS symptoms for RFX 550 mg BID versus placebo.
Two measures of efficacy were assessed independently. The first was the proportion of subjects who provided a ‘yes’ response to the weekly SGA question: “In the past 7 days, have you had adequate relief of your IBS symptoms? (yes/no)”. The second endpoint was the proportion of subjects who provide a ‘yes’ response to the weekly individual symptom question: “In the past 7 days, have you had adequate relief of your symptom of bloating? (yes/no)”. Durability was based on the proportion of subjects that had adequate relief over the entire treatment phase.
It is reported herein that the severity of baseline symptoms of abdominal pain and bloating influenced the response to rifaximin treatment. The co-primary endpoints in this analysis assessed weekly yes/no responses to questions regarding adequate relief of global IBS symptoms and IBS-associated bloating. Severity of baseline IBS symptoms was evaluated as a potential confounder of clinical response and was categorized as mild/moderate or severe based on a mean score of ≤4 vs. >4 (on a 7-point scale) for bloating and abdominal pain.
The Weekly yes/no responses to questions regarding adequate relief of global IBS symptoms and IBS-associated bloating were assessed. Clinical response was defined as adequate relief for 2 of the final 3 treatment weeks (wk 2, 3, or 4). Severity of baseline IBS symptoms was evaluated as a potential confounder of clinical response and was categorized as mild/moderate or severe based on a mean score of ≤4 versus >4 (on a 7-point scale (0=not bothersome; 6=very bothersome)) for bloating and abdominal pain.

[1] = RFX 550 mg BID, responders followed through week 16
[2] = patients with mild/moderate abdominal pain at baseline
[3] = patients with mild/moderate bloating at baseline

CO[C@H]1/C=C/O[C@@]2(C)Oc3c(C)c(O)c4c(O)c(c5c(nc6cc(C)ccn65)c4c3C2=O)NC(=O)/C(C)=C\C=C\[C@H](C)[C@H](O)[C@@H](C)[C@@H](O)[C@@H](C)[C@H](OC(C)=O)[C@@H]1C [Rifaximin, (2S,16Z,18E,20S,21S,22R,23R,24R,25S,26S,27S,28E)-5,6,21,23,25 Pentahydroxy-27-methoxy-2,4,11,16,20,22,24,26-octamethyl-2,7-(epoxypentadeca-(1,11,13)trienimino) benzofuro (4,5-e) pyrido(1,2-a) benzimidazole-1,15(2H)-dione,25-acetate]
Treatment effect, Bloating (Age <65): 6.8%
Treatment effect, IBS Sx (Age <65): 6.9%
Treatment effect, Bloating (Age ≥65): 3.2%
Treatment effect, IBS Sx (Age ≥65): 19.1%
Treatment effect, Bloating (Diabetes History N): 7.4%
Treatment effect, IBS Sx (Diabetes History N): 9.5%
Treatment effect, Bloating (Diabetes History Y): −5.6%
Treatment effect, IBS Sx (Diabetes History Y): −12.7%
Treatment effect, Bloating (Disease Duration 10-20 y): 11.7%
Treatment effect, IBS Sx (Disease Duration 10-20 y): 20.1%
Treatment effect, Bloating (Disease Duration >20 y): 35.1%
Treatment effect, IBS Sx (Disease Duration >20 y): 46.6%
Treatment effect, Bloating (Disease Duration ≤10 y): 2.8%
Treatment effect, IBS Sx (Disease Duration ≤10 y): 1.8%
Adequate relief of IBS symptoms at end of treatment phase, Failure (Female, RFX 275 2w): 46 (56.8%) n (%)
Adequate relief of IBS symptoms at end of treatment phase, Success (Female, RFX 275 2w): 35 (43.2%) n (%)
Adequate relief of bloating at end of treatment phase, Failure (Female, RFX 275 2w): 52 (64.2%) n (%)
Adequate relief of bloating at end of treatment phase, Success (Female, RFX 275 2w): 29 (35.8%) n (%)
Adequate relief of IBS symptoms at end of treatment phase, Failure (Female, RFX 550 2w): 66 (48.2%) n (%)
Adequate relief of IBS symptoms at end of treatment phase, Success (Female, RFX 550 2w): 71 (51.8%) n (%)
Adequate relief of bloating at end of treatment phase, Failure (Female, RFX 550 2w): 74 (54.0%) n (%)
Adequate relief of bloating at end of treatment phase, Success (Female, RFX 550 2w): 63 (46.0%) n (%)
Adequate relief of IBS symptoms at end of treatment phase, Failure (Female, RFX 550 4w): 42 (55.3%) n (%)
Adequate relief of IBS symptoms at end of treatment phase, Success (Female, RFX 550 4w): 34 (44.7%) n (%)
Adequate relief of bloating at end of treatment phase, Failure (Female, RFX 550 4w): 44 (57.9%) n (%)
Adequate relief of bloating at end of treatment phase, Success (Female, RFX 550 4w): 32 (42.1%) n (%)
Adequate relief of IBS symptoms at end of treatment phase, Failure (Female, RFX 1100 2w): 44 (60.3%) n (%)
Adequate relief of IBS symptoms at end of treatment phase, Success (Female, RFX 1100 2w): 29 (39.7%) n (%)
Adequate relief of bloating at end of treatment phase, Failure (Female, RFX 1100 2w): 45 (61.6%) n (%)
Adequate relief of bloating at end of treatment phase, Success (Female, RFX 1100 2w): 28 (38.4%) n (%)
Treatment effect, Bloating (Gender F): 3.9%
Treatment effect, IBS Sx (Gender F): 3.5%
Treatment effect, Bloating (Gender M): 13.6%
Treatment effect, IBS Sx (Gender M): 21%
Adequate relief of IBS symptoms at end of treatment phase, Failure (Male, RFX 275 2w): 9 (64.3%) n (%)
Adequate relief of IBS symptoms at end of treatment phase, Success (Male, RFX 275 2w): 5 (35.7%) n (%)
Adequate relief of bloating at end of treatment phase, Failure (Male, RFX 275 2w): 8 (57.1%) n (%)
Adequate relief of bloating at end of treatment phase, Success (Male, RFX 275 2w): 6 (42.9%) n (%)
Adequate relief of IBS symptoms at end of treatment phase, Failure (Male, RFX 550 2w): 25 (46.3%) n (%)
Adequate relief of IBS symptoms at end of treatment phase, Success (Male, RFX 550 2w): 29 (53.7%) n (%)
Adequate relief of bloating at end of treatment phase, Failure (Male, RFX 550 2w): 29 (53.7%) n (%)
Adequate relief of bloating at end of treatment phase, Success (Male, RFX 550 2w): 25 (46.3%) n (%)
Adequate relief of IBS symptoms at end of treatment phase, Failure (Male, RFX 550 4w): 15 (68.2%) n (%)
Adequate relief of IBS symptoms at end of treatment phase, Success (Male, RFX 550 4w): 7 (31.8%) n (%)
Adequate relief of bloating at end of treatment phase, Failure (Male, RFX 550 4w): 16 (72.7%) n (%)
Adequate relief of bloating at end of treatment phase, Success (Male, RFX 550 4w): 6 (27.3%) n (%)
Adequate relief of IBS symptoms at end of treatment phase, Failure (Male, RFX 1100 2w): 14 (53.8%) n (%)
Adequate relief of IBS symptoms at end of treatment phase, Success (Male, RFX 1100 2w): 12 (46.2%) n (%)
Adequate relief of bloating at end of treatment phase, Failure (Male, RFX 1100 2w): 16 (61.5%) n (%)
Adequate relief of bloating at end of treatment phase, Success (Male, RFX 1100 2w): 10 (38.5%) n (%)
Percentage of subjects with adequate relief of IBS symptoms (ITT): 52%
Percentage of subjects with adequate relief of bloating symptom (ITT): 46%
Percentage of subjects with adequate relief of IBS symptoms (ITT, listed as RFX): 52.4%
Percentage of subjects with adequate relief of bloating symptom (ITT, listed as RFX): 46.1%
Percentage of subjects with 0 weeks with adequate relief of IBS symptoms (RFX 550 mg BID, ITT): 33%
Percentage of subjects with 0 weeks with adequate relief of bloating symptoms (RFX 550 mg BID, ITT): 35%
Percentage of subjects with 1 week with adequate relief of IBS symptoms (RFX 550 mg BID, ITT): 11%
Percentage of subjects with 1 week with adequate relief of bloating symptoms (RFX 550 mg BID, ITT): 14%
Percentage of subjects with 2 weeks with adequate relief of IBS symptoms (RFX 550 mg BID, ITT): 15%
Percentage of subjects with 2 weeks with adequate relief of bloating symptoms (RFX 550 mg BID, ITT): 15%
Percentage of subjects with 3 weeks with adequate relief of IBS symptoms (RFX 550 mg BID, ITT): 23%
Percentage of subjects with 3 weeks with adequate relief of bloating symptoms (RFX 550 mg BID, ITT): 20%
Percentage of subjects with 4 weeks with adequate relief of IBS symptoms (RFX 550 mg BID, ITT): 16%
Percentage of subjects with 4 weeks with adequate relief of bloating symptoms (RFX 550 mg BID, ITT): 14%
Long-term adequate relief of IBS symptoms in post-treatment follow-up [1]: 62.3%
Long-term adequate relief of the symptom of bloating in post-treatment follow-up [1]: 59.3%
Adequate relief of bloating, post treatment, Failures (Week 6): 5 (9.3%) n (%)
Adequate relief of bloating, post treatment, Success (Week 6): 49 (90.7%) n (%)
Adequate relief of bloating, post treatment, Failures (Week 7): 9 (16.7%) n (%)
Adequate relief of bloating, post treatment, Success (Week 7): 45 (83.3%) n (%)
Adequate relief of bloating, post treatment, Failures (Week 8): 7 (13.0%) n (%)
Adequate relief of bloating, post treatment, Success (Week 8): 47 (87.0%) n (%)
Adequate relief of bloating, post treatment, Failures (Week 9): 15 (27.8%) n (%)
Adequate relief of bloating, post treatment, Success (Week 9): 39 (72.2%) n (%)
Adequate relief of bloating, post treatment, Failures (Week 10): 15 (27.8%) n (%)
Adequate relief of bloating, post treatment, Success (Week 10): 39 (72.2%) n (%)
Adequate relief of bloating, post treatment, Failures (Week 11): 19 (35.2%) n (%)
Adequate relief of bloating, post treatment, Success (Week 11): 35 (64.8%) n (%)
Adequate relief of bloating, post treatment, Failure (Week 12): 18 (33.3%) n (%)
Adequate relief of bloating, post treatment, Success (Week 12): 36 (66.7%) n (%)
Adequate relief of bloating, post treatment, Failure (Week 13): 21 (38.9%) n (%)
Adequate relief of bloating, post treatment, Success (Week 13): 33 (61.1%) n (%)
Adequate relief of bloating, post treatment, Failure (Week 14): 20 (37.0%) n (%)
Adequate relief of bloating, post treatment, Success (Week 14): 34 (63.0%) n (%)
Adequate relief of bloating, post treatment, Failure (Week 15): 23 (42.6%) n (%)
Adequate relief of bloating, post treatment, Success (Week 15): 31 (57.4%) n (%)
Adequate relief of bloating, post treatment, Failure (Week 16): 22 (40.7%) n (%)
Adequate relief of bloating, post treatment, Success (Week 16): 32 (59.3%) n (%)
Treatment effect, Bloating (aIBS): 31.4%*, 31.4%
Treatment effect, IBS Sx (aIBS): 31.4%*, 31.4%
Treatment effect, Bloating (dIBS only): 4.5%
Treatment effect, IBS Sx (dIBS only): 6.3%
Patients with adequate relief of bloating [2]: 44%
Patients with adequate relief of global IBS symptoms [2]: 50%
Patients with adequate relief of bloating [3]: 47%
Patients with adequate relief of global IBS symptoms [3]: 56%
